Calls of active or inactive are those of the source. The rule behind the calls is not given here.
Key:
[1] = target: Bromodomain-containing protein 4 (Homo sapiens, UniProt O60885); assay: Inhibition of His-tagged BRD4-BD2 (unknown origin) incubated for 30 mins in presence of ATP by Alphascreen assay
SUD4 [2] = assay: Induction of apoptosis in human SU-DHL-4 cells assessed as necrotic cells at 1 uM incubated for 24 hrs by Annexin V-FITC/PI staining based flow cytometric analysis (reference value: 0.642 %); type: functional
SU-DHL-6 [3] = assay: Induction of apoptosis in human SU-DHL-6 cells assessed as viable cells at 0.25 uM incubated for 24 hrs by Annexin V-FITC/PI staining based flow cytometric analysis (reference value: 61.2 %); type: functional; conditions: read-out: Activity
[4] = Cmax in female BALB/c mouse at 20 mg/kg, po measured after 24 hrs by LC-MS/MS analysis; type: ADME, organism-based; conditions: in vivo
SUD4 [5] = assay: Induction of apoptosis in human SU-DHL-4 cells assessed as late apoptotic cells at 1 uM incubated for 24 hrs by Annexin V-FITC/PI staining based flow cytometric analysis (reference value: 6.74 %); type: functional
SUD4 [6] = assay: Induction of apoptosis in human SU-DHL-4 cells assessed as late apoptotic cells at 0.5 uM incubated for 24 hrs by Annexin V-FITC/PI staining based flow cytometric analysis (reference value: 6.74 %); type: functional
[7] = Toxicity in female BALB/c mouse model xenografted with human SU-DHL-6 cells assessed as effect on liver histopathology at 20 mg/kg, po administered once daily via gavage for 15 days by H and E staining based analysis; type: organism-based; conditions: in vivo, 360 h, time 15 day
SU-DHL-6 [8] = assay: Antiproliferative activity against human SU-DHL-6 cells assessed as inhibition of cell proliferation by measuring reduction in cell count incubated for 6 days by photographic analysis; type: functional, cell-based; conditions: dose 12.5-50 nM, time 6.0 day
SUD4 [9] = assay: Antiproliferative against activity human SU-DHL-4 cells assessed as inhibition of cell growth incubated for 72 hrs by Celltiter-luminescence analysis; type: functional, cell-based; conditions: SU-DHL-4, 72 h
SUD4 [10] = assay: Induction of apoptosis in human SU-DHL-4 cells assessed as early apoptotic cells at 0.5 uM incubated for 24 hrs by Annexin V-FITC/PI staining based flow cytometric analysis (reference value: 25.3 %); type: functional
[11] = target: Bromodomain-containing protein 3 (Homo sapiens, UniProt Q15059); assay: Inhibition of His-tagged BRD3-BD1 (unknown origin) incubated for 30 mins in presence of ATP by Alphascreen assay
Sequence of Bromodomain-containing protein 3 (Q15059 whole entry): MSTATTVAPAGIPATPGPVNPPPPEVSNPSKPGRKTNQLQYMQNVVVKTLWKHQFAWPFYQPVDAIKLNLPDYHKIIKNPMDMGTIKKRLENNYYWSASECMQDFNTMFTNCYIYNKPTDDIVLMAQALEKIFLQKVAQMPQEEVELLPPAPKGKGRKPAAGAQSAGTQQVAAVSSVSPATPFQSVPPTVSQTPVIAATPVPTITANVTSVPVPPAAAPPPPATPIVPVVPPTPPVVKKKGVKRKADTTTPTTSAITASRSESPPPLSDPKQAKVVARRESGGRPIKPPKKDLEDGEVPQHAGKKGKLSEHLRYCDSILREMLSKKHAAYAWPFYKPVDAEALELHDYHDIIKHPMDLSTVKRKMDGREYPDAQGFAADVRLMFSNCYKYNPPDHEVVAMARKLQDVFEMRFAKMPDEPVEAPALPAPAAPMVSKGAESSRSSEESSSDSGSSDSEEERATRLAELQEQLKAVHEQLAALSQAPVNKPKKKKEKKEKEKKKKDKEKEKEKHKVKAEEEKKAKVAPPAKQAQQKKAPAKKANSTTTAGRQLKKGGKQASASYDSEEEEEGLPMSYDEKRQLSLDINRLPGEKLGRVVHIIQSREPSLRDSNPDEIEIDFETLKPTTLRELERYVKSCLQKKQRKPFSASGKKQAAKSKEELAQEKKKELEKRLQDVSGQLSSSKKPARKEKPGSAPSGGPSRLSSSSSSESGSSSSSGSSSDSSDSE

[12] = target: Phosphatidylinositol 5-phosphate 4-kinase type-2 alpha (Homo sapiens) (UniProt P48426); assay: Inhibition of human PIP4K2alpha at 1 uM relative to control
Sequence of Phosphatidylinositol 5-phosphate 4-kinase type-2 alpha (Homo sapiens) (P48426 whole entry): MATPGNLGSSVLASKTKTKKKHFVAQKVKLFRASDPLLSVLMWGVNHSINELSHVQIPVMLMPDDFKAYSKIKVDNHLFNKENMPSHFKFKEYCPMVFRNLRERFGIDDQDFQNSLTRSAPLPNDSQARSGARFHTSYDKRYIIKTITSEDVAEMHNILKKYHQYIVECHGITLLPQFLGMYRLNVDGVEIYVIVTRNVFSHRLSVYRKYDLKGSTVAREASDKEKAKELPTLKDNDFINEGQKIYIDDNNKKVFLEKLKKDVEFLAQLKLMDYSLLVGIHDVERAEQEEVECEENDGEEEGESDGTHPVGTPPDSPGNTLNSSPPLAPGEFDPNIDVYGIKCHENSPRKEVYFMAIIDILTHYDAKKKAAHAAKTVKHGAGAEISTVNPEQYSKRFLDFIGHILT

SU-DHL-6 [13] = assay: Downregulation of c-Myc expression in human SU-DHL-6 cells at 0.25 to 1 uM incubated for 12 hrs by Western blot analysis; type: functional, cell-based; conditions: dose 0.25-1 µM
SUD4 [14] = assay: Induction of apoptosis in human SU-DHL-4 cells assessed as necrotic cells at 0.25 uM incubated for 24 hrs by Annexin V-FITC/PI staining based flow cytometric analysis (reference value: 0.642 %); type: functional
SU-DHL-6 [15] = assay: Induction of apoptosis in human SU-DHL-6 cells assessed as necrotic cells at 1 uM incubated for 24 hrs by Annexin V-FITC/PI staining based flow cytometric analysis (reference value: 0.246 %); type: functional
SUD4 [16] = assay: Induction of apoptosis in human SU-DHL-4 cells assessed as late apoptotic cells at 0.25 uM incubated for 24 hrs by Annexin V-FITC/PI staining based flow cytometric analysis (reference value: 6.74 %); type: functional
SU-DHL-6 [17] = assay: Induction of apoptosis in human SU-DHL-6 cells assessed as early apoptotic cells at 0.25 uM incubated for 24 hrs by Annexin V-FITC/PI staining based flow cytometric analysis (reference value: 32.1 %); type: functional
[18] = Toxicity in female BALB/c mouse model xenografted with human SU-DHL-6 cells assessed as effect on lung histopathology at 20 mg/kg, po administered once daily via gavage for 15 days by H and E staining based analysis; type: organism-based; conditions: in vivo, 360 h, time 15 day
[19] = target: PI3-kinase p110-alpha/p85-alpha (Homo sapiens, UniProt P42336); assay: Inhibition of p110alpha/p85alpha (unknown origin) incubated for 2 hrs in presence of ATP by ADP-kinaseGlo reagent based assay; type: protein-complex assay
[20] = target: PI3-kinase p110-delta/p85-alpha (Homo sapiens, UniProt O00329); assay: Inhibition of p110delta/p85alpha (unknown origin) incubated for 2 hrs in presence of ATP by ADP-kinaseGlo reagent based assay; type: protein-complex assay
[21] = target: Phosphatidylinositol 3-kinase C2 domain-containing subunit gamma (Homo sapiens) (UniProt O75747); assay: Inhibition of human PI3KC2gamma at 1 uM relative to control
[22] = target: Phosphatidylinositol 4,5-bisphosphate 3-kinase catalytic subunit gamma isoform (Homo sapiens, UniProt P48736); assay: Inhibition of PI3Kgamma (unknown origin) incubated for 2 hrs in presence of ATP by ADP-kinaseGlo reagent based assay
Sequence of Phosphatidylinositol 4,5-bisphosphate 3-kinase catalytic subunit gamma isoform (P48736 whole entry, canonical isoform): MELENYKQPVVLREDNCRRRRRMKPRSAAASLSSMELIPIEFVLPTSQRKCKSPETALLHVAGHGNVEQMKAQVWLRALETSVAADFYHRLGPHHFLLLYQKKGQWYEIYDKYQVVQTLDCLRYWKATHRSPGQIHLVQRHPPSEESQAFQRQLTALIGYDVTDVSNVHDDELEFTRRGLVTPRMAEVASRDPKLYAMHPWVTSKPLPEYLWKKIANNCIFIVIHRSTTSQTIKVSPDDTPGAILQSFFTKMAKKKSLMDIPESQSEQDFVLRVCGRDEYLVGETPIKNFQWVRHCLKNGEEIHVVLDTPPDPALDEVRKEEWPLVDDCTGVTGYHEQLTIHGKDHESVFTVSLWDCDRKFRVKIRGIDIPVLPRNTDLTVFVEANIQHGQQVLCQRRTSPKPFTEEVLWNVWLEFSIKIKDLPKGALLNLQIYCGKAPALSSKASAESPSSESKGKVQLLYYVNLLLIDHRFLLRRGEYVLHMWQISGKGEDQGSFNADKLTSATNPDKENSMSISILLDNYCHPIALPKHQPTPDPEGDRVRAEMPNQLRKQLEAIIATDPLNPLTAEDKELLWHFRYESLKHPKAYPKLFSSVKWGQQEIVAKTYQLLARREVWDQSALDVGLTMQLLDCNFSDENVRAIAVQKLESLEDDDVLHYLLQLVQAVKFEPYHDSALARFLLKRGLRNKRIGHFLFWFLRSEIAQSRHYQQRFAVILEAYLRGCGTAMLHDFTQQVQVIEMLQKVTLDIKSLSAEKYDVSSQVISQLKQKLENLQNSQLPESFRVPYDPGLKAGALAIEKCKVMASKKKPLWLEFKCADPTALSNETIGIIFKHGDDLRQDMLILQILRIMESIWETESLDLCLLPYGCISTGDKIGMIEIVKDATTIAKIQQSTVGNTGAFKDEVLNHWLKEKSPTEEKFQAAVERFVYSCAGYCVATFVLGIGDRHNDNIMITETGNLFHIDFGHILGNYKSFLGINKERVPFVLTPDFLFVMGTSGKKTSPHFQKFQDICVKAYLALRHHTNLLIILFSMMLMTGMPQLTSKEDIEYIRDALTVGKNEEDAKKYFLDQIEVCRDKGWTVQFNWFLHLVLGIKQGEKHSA

[23] = AUC (0 to t) in female BALB/c mouse at 20 mg/kg, po measured after 24 hrs by LC-MS/MS analysis; type: ADME, organism-based; conditions: in vivo
WI-38 = assay: Cytotoxicity against human WI-38 cells assessed as effect on cell proliferation at 5 to 20 uM incubated for 72 hrs by Celltiter-luminescence analysis; type: toxicity, cell-based; conditions: wi-38, 72 h, dose 5-20 µM
[24] = target: T1, PI3-kinase p110-delta/p85-alpha (Homo sapiens) (UniProt P27986+O00329); assay: Inhibition of human p110delta/p85alpha at 1 uM relative to control; type: protein-complex assay
[25] = target: Bromodomain-containing protein 2 (Homo sapiens, UniProt P25440); assay: Inhibition of His-tagged BRD2-BD1 (unknown origin) incubated for 30 mins in presence of ATP by Alphascreen assay
Sequence of Bromodomain-containing protein 2 (P25440 whole entry): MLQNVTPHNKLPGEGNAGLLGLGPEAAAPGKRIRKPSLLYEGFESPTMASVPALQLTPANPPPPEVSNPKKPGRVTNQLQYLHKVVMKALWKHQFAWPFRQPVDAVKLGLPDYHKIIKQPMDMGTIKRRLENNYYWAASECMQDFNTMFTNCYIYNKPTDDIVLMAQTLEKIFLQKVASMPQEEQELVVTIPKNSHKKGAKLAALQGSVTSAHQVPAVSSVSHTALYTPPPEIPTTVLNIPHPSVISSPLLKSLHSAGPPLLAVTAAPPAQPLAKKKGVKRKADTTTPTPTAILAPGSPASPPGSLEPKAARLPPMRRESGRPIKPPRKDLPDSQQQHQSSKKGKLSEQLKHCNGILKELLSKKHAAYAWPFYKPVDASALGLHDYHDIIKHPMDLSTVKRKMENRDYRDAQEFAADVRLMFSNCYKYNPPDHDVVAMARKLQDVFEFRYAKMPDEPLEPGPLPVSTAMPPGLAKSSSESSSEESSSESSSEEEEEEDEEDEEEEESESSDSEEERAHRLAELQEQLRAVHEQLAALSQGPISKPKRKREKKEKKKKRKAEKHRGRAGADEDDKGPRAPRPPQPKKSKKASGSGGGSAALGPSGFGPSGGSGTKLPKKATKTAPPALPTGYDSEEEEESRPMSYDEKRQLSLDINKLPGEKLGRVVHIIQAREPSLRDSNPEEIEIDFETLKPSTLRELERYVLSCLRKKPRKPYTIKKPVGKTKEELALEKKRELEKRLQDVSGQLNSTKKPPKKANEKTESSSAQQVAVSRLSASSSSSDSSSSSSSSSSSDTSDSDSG

[26] = target: T1, PI3-kinase p110-delta/p85-alpha (Homo sapiens); assay: Inhibition of p110delta/p85alpha (unknown origin) at 100 nM incubated for 2 hrs in presence of ATP by ADP-kinaseGlo reagent based assay relative to control; type: protein-complex assay
SUD4 [27] = assay: Induction of apoptosis in human SU-DHL-4 cells assessed as necrotic cells at 0.5 uM incubated for 24 hrs by Annexin V-FITC/PI staining based flow cytometric analysis (reference value: 0.642 %); type: functional
[28] = Cmax in female BALB/c mouse at 1 mg/kg, iv measured after 12 hrs by LC-MS/MS analysis; type: ADME, organism-based; conditions: in vivo
[29] = target: Phosphatidylinositol 4-phosphate 5-kinase type-1 gamma (Homo sapiens) (UniProt O60331); assay: Inhibition of human PIP5K1gamma at 1 uM relative to control
Sequence of Phosphatidylinositol 4-phosphate 5-kinase type-1 gamma (Homo sapiens) (O60331 whole entry): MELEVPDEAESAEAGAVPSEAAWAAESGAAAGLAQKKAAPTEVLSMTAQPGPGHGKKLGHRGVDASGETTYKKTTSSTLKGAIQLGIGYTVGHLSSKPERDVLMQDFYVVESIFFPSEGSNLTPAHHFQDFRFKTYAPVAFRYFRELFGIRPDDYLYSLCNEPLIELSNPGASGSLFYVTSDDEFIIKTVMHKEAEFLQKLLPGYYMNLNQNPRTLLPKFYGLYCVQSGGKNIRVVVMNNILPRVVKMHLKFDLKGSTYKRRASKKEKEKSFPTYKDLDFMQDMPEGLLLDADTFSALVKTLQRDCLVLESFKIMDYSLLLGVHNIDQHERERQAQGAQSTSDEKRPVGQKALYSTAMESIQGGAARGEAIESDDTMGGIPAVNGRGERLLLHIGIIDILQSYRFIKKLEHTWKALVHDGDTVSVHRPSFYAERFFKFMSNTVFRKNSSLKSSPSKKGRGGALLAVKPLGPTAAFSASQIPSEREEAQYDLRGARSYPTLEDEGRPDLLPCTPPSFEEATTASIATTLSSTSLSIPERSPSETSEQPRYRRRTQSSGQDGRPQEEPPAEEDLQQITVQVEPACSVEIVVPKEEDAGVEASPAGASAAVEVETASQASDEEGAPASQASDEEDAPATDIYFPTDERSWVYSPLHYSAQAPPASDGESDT

SUD4 [30] = assay: Induction of apoptosis in human SU-DHL-4 cells assessed as viable cells at 0.25 uM incubated for 24 hrs by Annexin V-FITC/PI staining based flow cytometric analysis (reference value: 65.2 %); type: functional; conditions: read-out: Activity
[31] = target: Phosphatidylinositol 4-phosphate 5-kinase type-1 alpha (Homo sapiens) (UniProt Q99755); assay: Inhibition of human PIP5K1alpha at 1 uM relative to control
Sequence of Phosphatidylinositol 4-phosphate 5-kinase type-1 alpha (Homo sapiens) (Q99755 whole entry): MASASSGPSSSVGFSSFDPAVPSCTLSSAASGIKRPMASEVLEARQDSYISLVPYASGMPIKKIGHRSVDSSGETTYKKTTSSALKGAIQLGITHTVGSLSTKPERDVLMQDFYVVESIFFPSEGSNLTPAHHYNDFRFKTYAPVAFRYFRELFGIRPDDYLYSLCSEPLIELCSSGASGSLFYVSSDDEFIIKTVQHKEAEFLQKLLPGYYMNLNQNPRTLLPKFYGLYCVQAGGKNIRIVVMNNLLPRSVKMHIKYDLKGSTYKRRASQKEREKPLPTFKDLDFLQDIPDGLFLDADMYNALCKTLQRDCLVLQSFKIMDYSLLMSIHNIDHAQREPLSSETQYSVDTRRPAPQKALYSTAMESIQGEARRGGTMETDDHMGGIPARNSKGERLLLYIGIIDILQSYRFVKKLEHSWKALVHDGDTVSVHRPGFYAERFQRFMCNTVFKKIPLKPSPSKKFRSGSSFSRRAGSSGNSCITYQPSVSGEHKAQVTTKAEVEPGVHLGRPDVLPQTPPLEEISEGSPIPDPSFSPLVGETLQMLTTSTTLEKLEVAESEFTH

SU-DHL-6 [32] = assay: Induction of apoptosis in human SU-DHL-6 cells assessed as late apoptotic cells at 1 uM incubated for 24 hrs by Annexin V-FITC/PI staining based flow cytometric analysis (reference value: 6.43 %); type: functional

Cn1cc(-c2nc(N3CCOCC3)c3sc(CN4CCC(C(C)(C)O)CC4)cc3n2)c2cc[nH]c2c1=O
IC50 [1]: 2 nM
Activity (SUD4 [2]): 0.505%
viability at 0.25 µM (SU-DHL-6 [3]): 53.7%
Cmax [4]: 228 ng/mL
Activity (SUD4 [5]): 26.2%
Activity (SUD4 [6]): 17.3%
Activity [7]: Non-toxic
Activity (SU-DHL-6 [8]): Dose-dependent-effect; Stronger Effect Observed At Lower Concentration Than Those Of Sf2523
IC50 (SUD4 [9]): 91 nM
Activity (SUD4 [10]): 30.8%
IC50 [11]: 32 nM
inhibition [12]: 0.3%
Activity (SU-DHL-6 [13]): Active
Activity (SUD4 [14]): 1.34%
Activity (SU-DHL-6 [15]): 0.58%
Activity (SUD4 [16]): 12.6%
Activity (SU-DHL-6 [17]): 39.5%
Activity [18]: Non-toxic
IC50 [19]: 6130 nM
IC50 [20]: 112 nM
inhibition [21]: 15.6%
IC50 [22]: 915 nM
AUC(0-t) at 24 h [23]: 2190 ng·h/mL
Activity (WI-38): Non-toxic
inhibition [24]: 94.1%
IC50 [25]: 18 nM
inhibition [26]: 41.6%
Activity (SUD4 [27]): 2.8%
Cmax [28]: 544 ng/mL
inhibition [29]: 75.7%
viability at 0.25 µM (SUD4 [30]): 53.7%
inhibition [31]: 72.6%
Activity (SU-DHL-6 [32]): 8.72%
